{
  "source": "patent US9896668B2",
  "about": "“Substrate-mimetic AKT inhibitor” (University of South Florida, priority 2006, dated 2018)",
  "target": "Akt1 (Homo sapiens, UniProt P31749)",
  "sequence (P31749 whole entry)": "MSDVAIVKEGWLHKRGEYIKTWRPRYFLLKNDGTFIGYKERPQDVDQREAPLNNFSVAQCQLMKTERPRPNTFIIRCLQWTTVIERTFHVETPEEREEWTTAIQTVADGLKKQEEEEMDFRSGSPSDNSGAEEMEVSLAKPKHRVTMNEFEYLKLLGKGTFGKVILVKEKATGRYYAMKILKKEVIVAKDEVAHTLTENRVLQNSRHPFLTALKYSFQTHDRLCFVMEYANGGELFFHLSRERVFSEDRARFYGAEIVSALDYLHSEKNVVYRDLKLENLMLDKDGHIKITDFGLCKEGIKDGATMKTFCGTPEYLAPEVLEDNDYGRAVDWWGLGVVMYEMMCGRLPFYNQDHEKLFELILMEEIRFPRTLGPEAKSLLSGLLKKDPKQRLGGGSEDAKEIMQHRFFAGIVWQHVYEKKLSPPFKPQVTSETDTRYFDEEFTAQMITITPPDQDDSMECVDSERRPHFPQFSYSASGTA",
  "test": "in vitro inhibition of Akt, fluorescence polarization assay (IMAP Akt Assay Kit)",
  "format": "biochemical",
  "procedure": "FIG. 9 is a table of investigations into the hydrophobic interactions between the GSK-3 residues central hydrophobic contacts and Akt. The values reported are an average of three independent binding curves using an IMAP™ Akt Assay Kit (Molecular Devices). Reactions were conducted in wells with 20.0 μL of 10 mM Tris-HCl (pH 7.2), 10 mM MgCl2, 0.1% BSA, 0.05% NaN3, 1 mM DTT, 100 nM 5FAM-[…]-COOH, 5 μM ATP, Akt1, and inhibitor. Reaction mixtures were incubated for 1 h at room temperature and then quenched with 60 μL of the IMAP-binding solution. The reactions were equilibrated for 1 h at room temperature then data points were collected and analyzed.\nFIG. 14 is a table showing the optimization of C-terminal and central substituents for non-peptide inhibitors. ^a Reported values are an average of three independent-binding curves utilizing an IMAP® Akt Assay Kit (Molecular Devices). […] The reactions were equilibrated for 1 h at room temperature then data points were collected and analyzed. […]\nPeptidomimetic inhibitors were generated directly from the minimal substrate sequence by systematic replacement of the non-critical amino acids and tested for in vitro inhibition of Akt using a fluorescence polarization assay system, shown in FIG. 3. […]",
  "note": "Square brackets hold non-standard residues; d marks the D form. Peptide text beside a SMILES is read from it. * marks the point of attachment. 4Abz = Nc1ccc(C(=O)O)cc1; NHBn = c1ccc(CN*)cc1",
  "data": [
    {"smiles": "CC(=O)NCC(=O)N[C@@H](CCCNC(=N)N)C(=O)N1CCC[C@H]1C(=O)N[C@@H](CCCNC(=N)N)C(=O)Nc1ccc(C(=O)N[C@H](C(=O)N[C@@H](Cc2ccccc2)C(=O)NCc2ccccc2)C(C)C)cc1", "note": "[Inhibitor 10] (Ac-GRPR[4Abz]VF-NHBn)", "values": [
      {"measurement": "IC50", "setting": "IMAP Akt Assay Kit, 5 μM ATP, 100 nM 5FAM-GRPRTSSFAEG-COOH, 1 h room temperature", "result": 28, "unit": "µM"},
      {"measurement": "fold increase in potency/activity versus parent inhibitor", "setting": "in vitro Akt inhibition", "result": 10, "unit": "fold"}
    ]}
  ]
}
